Reference: patent US20230075765A1, “PYRROLO[2,3-D]PYRIMIDINE DERIVATIVE TARGETING EGFR MUTATION, AS WELL AS THE PREPARATIVE METHOD AND THE USE THEREOF” (WEST CHINA HOSPITAL, SICHUAN UNIVERSITY, priority 2020, published 2023)

Key:
Assay type in all cases: cell-based, human
[1] = test system: normal cells and different lung cancer cell lines; test: Inhibition of cell proliferation, CCK8 method, comparison in words over the whole cell panel; details: BEAS-2B, HBE, H460, A549, H1975, HCC827; CCK8, 48 h
Description: Compounds 1-9 of the present invention were respectively weighed and dissolved in 1 ml of dimethyl sulfoxide (DMSO), to prepare a 10 mM drug solution, which was stored in a refrigerator at −20° C. in the dark after packaging. The stock solution was diluted with the corresponding culture medium to the required concentration just before the experiment.
HBE cells and BEAS-2B cells are normal lung bronchial epithelial cell lines, and both cells were cultured in DMEM high glucose medium (supplemented with 10% fetal bovine serum and 1% double antibody) to the logarithmic growth phase; H460 cells, A549 cells, H1975 cells and HCC827 cells are lung cancer cell lines, and all of them were cultured in RPMI1640 medium (supplemented with 10% fetal bovine serum and 1% double antibody) to the logarithmic growth phase. Among them, H1975 cells and HCC827 cells are EGFR mutant cells.
When the cells were cultured to 90% of the growth density, the cells were digested with 0.25% trypsin to prepare a single cell suspension. The cells were counted, and then seeded in a 96-well plate at a density of 5000 cells/well, 100 μl for each well. The culture plate was moved into a CO2 incubator and incubated for 24 h at 37° C. and 5% CO2. Compounds at different concentrations were added to each well, 5 replicate wells for each concentration, and the cells were treated with the compounds for 48 hours. CCK8 detection reagent was added to each well according to the operation manual, and then the plate was further incubated for 1 h before terminating the culture. 450 nm wavelength was chosen, and the absorbance value of each well was adjusted on the microplate ELISA analyzer. The result was recorded. […] was taken as the horizontal axis, and absorbance as the vertical axis to plot a curve. The half inhibitory concentration (IC50) was calculated by Bliss method. Each experiment was repeated at least 3 times.
Normal lung cell lines and different lung cancer cell lines were selected for experiments. Amongst, the compound with high anti-cancer activity was screened, whose anti-tumor activity was further studied.

[2] = test system: EGFR-Tyr992; test: Western blot, inhibition of EGFR phosphorylation; details: H1975 cells
Description: (§1) (1) Various cell lines in the logarithmic growth phase were evenly inoculated in a 6-well plate at a concentration of 3×10^6 cells/well, respectively, and cultured for 24 h;
(§2) (2) The culture supernatant was removed, and then the cells were washed twice with PBS, and treated with serum-free medium for 1 hour;
(§3) (3) The culture supernatant was removed, and each compound at different concentrations was added, then the cells were treated for 2 h;
(§4) (4) The supernatant was removed, and the cells were washed twice with pre-cooled PBS, then the supernatant was discarded;
(§5) (5) 100 μl of cell lysate was added to each well, and cells were lysed on ice for 10 min. The cells were scraped with a cell scraper. The cell lysate was transferred to a pre-cooled 1.5 ml EP tube, sonicated, and centrifuged under 12000 rpm at 4° C. for 10 min. The supernatant was carefully aspirated and stored at −20° C.
(§6) (6) To the aliquoted total cell protein, was added 5 μl of 5× loading buffer, and the protein was denatured in a water bath at 100° C. for 10 min, then the sample was centrifugated and loaded;
(1) The successfully transferred membrane was placed in the 1× blocking solution prepared, and kept in the blocking solution at room temperature for about 1 h; […]

[3] = test system: Akt; test: Western blot, inhibition of Akt phosphorylation
Description: as §1, §2, §3, §4, §5, §6
(§7) (1) The successfully transferred membrane was placed in the 1× blocking solution prepared, and kept in the blocking solution at room temperature for about 1 h;
(§8) (2) EGFR protein and its downstream proteins were diluted with 1× primary antibody diluent, and incubated overnight at 4° C., using […] antibody as an internal reference;
(§9) (3) The membrane was washed 3 times with 1×TBST, 5 min for each time, and then washed with 1× secondary antibody dilution, followed by incubation for 1 h at room temperature. Finally, the membrane was washed 3 times with 1×TBST, 15 min for each time.
(§10) (2) The mixed ECL reagent was added to PVDF membrane (1 ml/10 cm^2), and subjected to chemiluminescence to obtain a band;
(§11) Western Blot method was used to analyze the influence of each compound on the expression of pathway proteins.

[4] = test system: ERK1/2; test: Western blot, inhibition of ERK1/2 phosphorylation
Description: as §1, §2, §3, §4, §5, §6, §7, §8, §9, §10, §11

[5] = test system: H1975 cells; test: Apoptosis, Annexin V-FITC/PI double staining, flow cytometry; details: for Total apoptosis rate (%): 18 h (control 9.2)
Description: (§12) Apoptosis was detected by Annexin V-FITC/PI double staining method. A variety of different cells in the logarithmic growth phase were inoculated evenly in a 6-well plate at a concentration of 1×10^6 cells/well, 2 ml for each well, and then incubated overnight. Then, different compounds were added, and each compound was set different concentrations. After 18 h, the cells were collected with 0.25% trypsin without EDTA and washed twice with PBS solution. Then, the cells were stained by the apoptosis detection kit according to the instructions, and analyzed by flow cytometry.
(§13) In the experiment, human lung cancer cells HCC827 cells and H1975 cells were selected as the detection system. The control group was a blank control (DMSO). The test concentrations of the compounds were 0.5 μM and 5 μM. After treatment with the compounds for 18 h, the flow cytometry was used for detection. In the apoptosis result graph, the cells in quadrant E1 are necrotic cells, the cells in quadrant E2 are late apoptotic cells, the cells in quadrant E3 area represent live cells, and the cells in quadrant E4 are early apoptotic cells.

[6] = test system: HCC827 cells; test: as above; details: for Total apoptosis rate (%): 18 h (control 10.8)
Description: as §12, §13

[7] = test system: H1975 cells; test: Cell cycle, PI staining, flow cytometry; details: for G2/M phase (%): 18 h (control 14.52); for S phase (%): 18 h (control 30.25); for G0/G1 phase (%): 18 h (control 55.23)
Description: (§14) A variety of different cells in the logarithmic growth phase were inoculated evenly in a 6-well plate at a concentration of 1×10^6 cells/well, 2 ml for each well, and then incubated overnight. Then, different compounds were added, and each compound was set different concentrations. After 18 h, the cells were collected, resuspended in PBS, and centrifuged to remove the supernatant, to which was then added 0.5 ml of pre-cooled 75% absolute ethanol dropwise, followed by vortexing to mix the cells and standing overnight at 4° C. The solution was centrifuged at 1000 rpm/min for 4 min, and the supernatant was discarded. Propidium iodide staining solution was prepared by using 5.6 ml staining buffer, 210 μl propidium iodide staining solution (25×), and 56 μl RNaseA (2.5 mg/ml). 0.4 ml of propidium iodide staining solution was added to each tube to resuspend the cells, and then incubated for 30 min at room temperature in the dark. The cell suspension was gently pipetted to mix, filtered into a flow tube, and stored in the dark at 4° C. The cells were detected on the flow cytometer within 1 h.

[8] = test system: HCC827 cells; test: Cell cycle, PI staining, flow cytometry; details: for G2/M phase (%): 18 h (control 24.99); for S phase (%): 18 h (control 33.66); for G0/G1 phase (%): 18 h (control 41.35)
Description: as §14

Row | Compound | inhibitory effect on different cell lines (in words) [1] | inhibition of phosphorylation of EGFR-Tyr992 [2] | inhibition of phosphorylation of Akt ([3]; H1975 cells) | inhibition of phosphorylation of Akt ([3]; wild-type EGFR cells) | inhibition of phosphorylation of ERK1/2 ([4]; H1975 cells) | inhibition of phosphorylation of ERK1/2 ([4]; wild-type EGFR cells) | apoptosis-inducing effect (in words) [5] | Total apoptosis rate (%) ([5]; 0.5 μM) | Total apoptosis rate (%) ([5]; 5 μM) | apoptosis-inducing effect (in words) [6] | Total apoptosis rate (%) ([6]; 0.5 μM) | Total apoptosis rate (%) ([6]; 5 μM) | ratio of cells in the G0/G1 phase compared with the control group (in words) [7] | G2/M phase (%) ([7]; 0.5 μM) | S phase (%) ([7]; 0.5 μM) | G0/G1 phase (%) ([7]; 0.5 μM) | G2/M phase (%) ([7]; 5 μM) | S phase (%) ([7]; 5 μM) | G0/G1 phase (%) ([7]; 5 μM) | ratio of cells in the G0/G1 phase compared with the control group (in words) [8] | other results
1 | C=CC(=O)Nc1cccc(Oc2nc(Nc3ccc(N4CCN(C)CC4)c(N)c3)nc3c2ccn3COC(=O)C(C)(C)C)c1 [Compound 8] | relatively poor inhibitory effects on other cell lines |  |  |  |  |  |  |  |  |  |  |  |  |  |  |  |  |  |  |  | 
2 | C=CC(=O)Nc1cccc(Oc2nc(Nc3ccc(N4CCN(C)CC4)c(Cl)c3)nc3[nH]ccc23)c1 [Compound 2] | basically the same as that of the positive control |  |  |  |  |  |  |  |  |  |  |  |  |  |  |  |  |  |  |  | 
3 | C=CC(=O)Nc1cccc(Oc2nc(Nc3ccc(N4CCN(C)CC4)c(I)c3)nc3c2ccn3COC(=O)C(C)(C)C)c1 [Compound 9] | poorer than that of other compounds |  |  |  |  |  |  |  |  |  |  |  |  |  |  |  |  |  |  |  | 
4 | C=CC(=O)Nc1cccc(Oc2nc(Nc3ccc(N4CCN(C)CC4)c([N+](=O)[O-])c3)nc3[nH]ccc23)c1 [Compound 5] |  | effectively inhibited | inhibited | much weaker inhibitory effects | inhibited | much weaker inhibitory effects | certain apoptosis-inducing effects | 12.7 | 13.5 | certain apoptosis-inducing effects | 30.3 | 23.8 | significantly higher | 9.17 | 4.64 | 86.20 | 11.64 | 14.04 | 74.33 | significantly higher | G2/M phase (%) ([8]; 0.5 μM): 9.72%; S phase (%) ([8]; 0.5 μM): 16.99%; G0/G1 phase (%) ([8]; 0.5 μM): 73.29%; G2/M phase (%) ([8]; 5 μM): 14.12%; S phase (%) ([8]; 5 μM): 4.36%; G0/G1 phase (%) ([8]; 5 μM): 81.52%
5 | C=CC(=O)Nc1cccc(Oc2nc(Nc3ccc(N4CCN(C)CC4)c(N)c3)nc3[nH]ccc23)c1 [Compound 6] |  | effectively inhibited | inhibited | much weaker inhibitory effects | inhibited | much weaker inhibitory effects | certain apoptosis-inducing effects | 16.4 | 16.1 | certain apoptosis-inducing effects | 28.7 | 23.6 | significantly higher | 10.49 | 5.28 | 84.24 | 13.18 | 10.59 | 76.23 | significantly higher | G2/M phase (%) ([8]; 0.5 μM): 10.27%; S phase (%) ([8]; 0.5 μM): 11.62%; G0/G1 phase (%) ([8]; 0.5 μM): 78.11%; G2/M phase (%) ([8]; 5 μM): 7.95%; S phase (%) ([8]; 5 μM): 13.93%; G0/G1 phase (%) ([8]; 5 μM): 78.12%
